Series [1] has as its system Plasmodium berghei. Nature of the series: Antiplasmodial activity against luciferase-expressing Plasmodium berghei infected in human Huh-7 cells assessed as reduction in parasite load at 1 to 10 uM preincubated with cells for 1 hr followed by parasite infection and measured after 46 hrs by bioluminescence assay. The class given is functional, organism-based. Particulars: dose 1-10 µM, time 47.0 hrs.

Series [2] has as its system Plasmodium falciparum. Nature of the series: Antimalarial activity against erythrocytic stage of chloroquine-sensitive Plasmodium falciparum 3D7 measured after 3 days by HRP2-ELISA analysis. The class given is functional, organism-based. Particulars: 3D7, 72 h. (In general: ELISA stands for enzyme-linked immunosorbent assay.)
Series [3] can be described thus: Selectivity index, ratio of IC50 for cytotoxicity against human HepG2 cells to IC50 for erythrocytic stage of chloroquine-sensitive Plasmodium falciparum 3D7. The format is toxicity, cell-based. Particulars: read-out: Ratio IC50.
For series [4], the system named is Plasmodium falciparum. Nature of the series: Antimalarial activity against erythrocytic stage of chloroquine-resistant Plasmodium falciparum Dd2 measured after 3 days by HRP2-ELISA analysis. The class given is functional, organism-based. Particulars: Dd2, 72 h.
The subject of series [5] is Plasmodium falciparum. Nature of the series: Resistance index, ratio of IC50 for antiplasmodial activity against chloroquine-resistant Plasmodium falciparum Dd2 to IC50 for antiplasmodial activity against chloroquine-sensitive Plasmodium falciparum 3D7. The class given is functional.
The next series relates to HepG2. In words: Cytotoxicity against human HepG2 cells assessed as reduction in cell viability incubated for 72 hrs by MTT assay. The format is functional, cell-based. Particulars: HepG2, 72 h. A general note: Tetrazolium dyes change colour on reduction, which living cells bring about.
Series [6] deals with Plasmodium berghei. Nature of the series: Antiplasmodial activity against luciferase-expressing Plasmodium berghei infected in human Huh-7 cells assessed as reduction in parasite load preincubated with cells for 1 hr followed by parasite infection and measured after 46 hrs by bioluminescence assay. The class given is functional, organism-based.

SMILES strings stand for the structures. Calls of active or inactive are those of the source. The rule behind the calls is not given here. A value given as a limit tells only on which side of the number the result lay.

Broadly, the IC50 is the concentration at which inhibition is half-maximal.

For `COc1ccc2c3ccnc(C)c3n(CCNC(=O)/C=C/c3ccc(C)cc3)c2c1`, the outcome in the series on Plasmodium berghei [1] was Active. The IC50 was 0.98 µM in the series with Plasmodium falciparum [2], 0.64 µM with Plasmodium falciparum [4] and 8.16 µM in the series on HepG2. Further, in series [3], the selectivity ratio is 6. The Ratio IC50 in the series on Plasmodium falciparum [5] worked out at 0.65.

Regarding `CCCOc1ccc(/C=C/COC(=O)NCCn2c3cc(OC)ccc3c3ccnc(C)c32)cc1`, in the series with Plasmodium berghei [1], the result was Active. In addition, the figures for the IC50 with Plasmodium falciparum [2], in the series on Plasmodium falciparum [4] and in the series with HepG2 were 0.39 µM, 0.83 µM and 9.96 µM, respectively. In series [3], the selectivity ratio came out at 19.9. In the series with Plasmodium falciparum [5], the Ratio IC50 was determined as 2.13.

Take `CCCOc1ccc(/C=C/CNC(=O)NCCn2c3cc(OC)ccc3c3ccnc(C)c32)cc1`: the result in the series with Plasmodium berghei [1] was Active. Besides, the IC50 was 0.42 µM with Plasmodium falciparum [2], 1.12 µM with Plasmodium falciparum [4] and 4.33 µM in the series with HepG2. Also, the selectivity ratio in series [3] was 10.3. Moreover, the Ratio IC50 with Plasmodium falciparum [5] came out at 2.67.

Consider `COc1ccc2c3ccnc(C)c3n(CCNC(=O)/C=C/c3cccc(OC(F)(F)F)c3)c2c1`, for which, in the series with Plasmodium berghei [1], the result was Active. Moreover, the 50% inhibitory concentration (IC50) in the series with Plasmodium berghei [6] stood at 2.29 µM; with Plasmodium falciparum [2], 0.35 µM; in the series with Plasmodium falciparum [4], 2.11 µM; with HepG2, 6.64 µM. The selectivity ratio in series [3] turned out to be 16.2. For the same compound, the Ratio IC50 in the series with Plasmodium falciparum [5] came out at 6.03.

In the case of `COc1ccc2c3ccnc(C)c3n(CCNC(=O)/C=C/c3ccc([N+](=O)[O-])cc3)c2c1`, the outcome in the series on Plasmodium berghei [1] was Active. Moreover, the results for the IC50 in the series on Plasmodium falciparum [2], in the series with Plasmodium falciparum [4] and with HepG2 were 1.36 µM, 2.05 µM and 17.5 µM, respectively. The selectivity ratio in series [3] was determined as 31.8. Also, in the series with Plasmodium falciparum [5], the Ratio IC50 stood at 1.51.

Turning to `COc1ccc2c3ccnc(C)c3n(CCNC(=O)OC/C=C/c3ccc(C)cc3)c2c1`, in the series with Plasmodium berghei [1], the outcome was Active. For the same compound, the values for the 50% inhibitory concentration (IC50) in the series with Plasmodium falciparum [2], with Plasmodium falciparum [4] and in the series on HepG2 were 1.13 µM, 2.28 µM and 9.92 µM, respectively. In series [3], the selectivity ratio stood at 8.78. For the same compound, in the series on Plasmodium falciparum [5], the Ratio IC50 came to 2.48.

Take `COc1ccc2c3ccnc(C)c3n(CCNC(=O)OC/C=C/c3cccc(OC(F)(F)F)c3)c2c1`: the result in the series on Plasmodium berghei [1] was Active. Also, the IC50 worked out at 0.68 µM in the series with Plasmodium falciparum [2], 1.78 µM in the series on Plasmodium falciparum [4] and 8.71 µM in the series on HepG2. In series [3], the selectivity ratio amounted to 12.8. In addition, the Ratio IC50 in the series with Plasmodium falciparum [5] came out at 2.62.

Regarding `COc1ccc2c3ccnc(C)c3n(CCNC(=O)OC/C=C/c3cc(C(F)(F)F)cc(C(F)(F)F)c3)c2c1`, the IC50 came out at 0.65 µM in the series with Plasmodium falciparum [2], 2.63 µM with Plasmodium falciparum [4] and 7.19 µM in the series with HepG2. Besides, the selectivity ratio in series [3] is 21.8. Moreover, in the series on Plasmodium falciparum [5], the Ratio IC50 worked out at 4.05.

On to `COc1ccc2c3ccnc(C)c3n(CCNC(=O)OC/C=C/c3ccc([N+](=O)[O-])cc3)c2c1`, for which the outcome in the series on Plasmodium berghei [1] was Active. Besides, the IC50 was found to be 0.36 µM in the series with Plasmodium falciparum [2] and 0.33 µM in the series with Plasmodium falciparum [4]. The Ratio IC50 with Plasmodium falciparum [5] came to 0.92.

Regarding `COc1ccc2c3ccnc(C)c3n(CCNC(=O)OC/C=C/c3ccc(C(F)(F)F)cc3)c2c1`, the result in the series with Plasmodium berghei [1] was Active. For the same compound, the IC50 in the series with Plasmodium falciparum [2] was 0.79 µM; in the series on Plasmodium falciparum [4], 0.7 µM; in the series on HepG2, 6.71 µM. Further, in series [3], the selectivity ratio was determined as 8.49. Also, the Ratio IC50 in the series with Plasmodium falciparum [5] worked out at 0.89.

Turning to `COc1cc(NC(C)CCCN)c2ncccc2c1` (configuration not stated), the result with Plasmodium berghei [1] was Active.

For `COc1ccc2c3ccnc(C)c3n(CCNC(=O)/C=C/c3ccc(Br)cc3)c2c1`, in the series on Plasmodium berghei [1], the outcome was Active. Moreover, the IC50 in the series on Plasmodium falciparum [2] worked out at 0.41 µM; with HepG2, 8.58 µM. In series [3], the selectivity ratio was determined as 8.76.

`COc1ccc2c3ccnc(C)c3n(CCNC(=O)NC/C=C/c3cccc(C(F)(F)F)c3)c2c1`: the result in the series on Plasmodium berghei [1] was Active. For the same compound, the IC50 with Plasmodium berghei [6] is 2.89 µM; in the series with Plasmodium falciparum [2], 0.22 µM; in the series with Plasmodium falciparum [4], 1.07 µM; in the series with HepG2, 9.84 µM. Moreover, the selectivity ratio in series [3] was found to be 44.7. Further, the Ratio IC50 with Plasmodium falciparum [5] is 4.86.

`COc1ccc2c3ccnc(C)c3n(CCNC(=O)OC/C=C/c3ccccc3Cl)c2c1`: the IC50 in the series on Plasmodium falciparum [2] stood at 1.24 µM; with Plasmodium falciparum [4] it was 1.33 µM. In addition, the Ratio IC50 with Plasmodium falciparum [5] was 1.07.

Consider `COc1ccc2c3ccnc(C)c3n(CCNC(=O)/C=C/c3ccccc3Cl)c2c1`, for which the result in the series with Plasmodium berghei [1] was Active. Besides, the values for the IC50 in the series on Plasmodium falciparum [2], in the series on Plasmodium falciparum [4] and in the series on HepG2 were 0.32 µM, 0.5 µM and 7.19 µM, respectively. In series [3], the selectivity ratio was found to be 21.8. Further, the Ratio IC50 in the series on Plasmodium falciparum [5] was 1.56.

On to `COc1ccc2c3ccnc(C)c3n(CCNC(=O)OC/C=C/c3cccc(C(F)(F)F)c3)c2c1`, for which the result in the series on Plasmodium berghei [1] was Active. Also, the values for the IC50 in the series on Plasmodium falciparum [2] and in the series with Plasmodium falciparum [4] were 0.5 µM and 1.92 µM, respectively. Also, in the series with Plasmodium falciparum [5], the Ratio IC50 is 3.84.

For the compound `COc1ccc2c3ccnc(C)c3n(CCNC(=O)OC/C=C/c3ccc(Br)cc3)c2c1`, the outcome in the series with Plasmodium berghei [1] was Active. Also, the values for the IC50 with Plasmodium falciparum [2], in the series on Plasmodium falciparum [4] and in the series with HepG2 were 0.42 µM, 1.09 µM and 9.05 µM, respectively. Besides, in series [3], the selectivity ratio is 21.6. Further, the Ratio IC50 in the series on Plasmodium falciparum [5] is 2.6.

Consider `COc1ccc2c3ccnc(C)c3n(CCNC(=O)OC/C=C/c3ccccc3)c2c1`, for which the result in the series with Plasmodium berghei [1] was Active. In addition, the IC50 in the series on Plasmodium berghei [6] came to 3.38 µM; with Plasmodium falciparum [2], 0.55 µM; in the series with Plasmodium falciparum [4] it was 1.37 µM; in the series on HepG2, 7.21 µM. In addition, the selectivity ratio in series [3] is 18.5. Besides, the Ratio IC50 with Plasmodium falciparum [5] came to 2.49.

Take `COc1ccc2c(c1)[nH]c1c(C)nccc12` [HARMINE]: in series [3], the selectivity ratio came out at 30. The IC50 in the series on Plasmodium falciparum [4] is above 27.7 µM; with HepG2, above 250 µM. For the same compound, in the series with Plasmodium falciparum [5], the Ratio IC50 is above 3.36.

Take `COc1ccc2c3ccnc(C)c3n(CCNC(=O)OC/C=C/c3cccc(Cl)c3)c2c1`: in the series with Plasmodium berghei [1], the result was Active. Moreover, the IC50 was 0.97 µM in the series with Plasmodium falciparum [2], 1.19 µM with Plasmodium falciparum [4] and 8.52 µM in the series with HepG2. In addition, the selectivity ratio in series [3] was 8.78. For the same compound, in the series on Plasmodium falciparum [5], the Ratio IC50 turned out to be 1.23.

In the case of `COc1ccc2c3ccnc(C)c3n(CCNC(=O)/C=C/c3cccc(Cl)c3)c2c1`, in the series on Plasmodium berghei [1], the outcome was Active. Also, the IC50 was 0.33 µM with Plasmodium falciparum [2], 0.68 µM with Plasmodium falciparum [4] and 8.97 µM in the series on HepG2. Also, the selectivity ratio in series [3] came to 25.6. Further, in the series with Plasmodium falciparum [5], the Ratio IC50 was found to be 2.06.

The record behind these values is ChEMBL document CHEMBL5365475, “Design, synthesis and antiplasmodial evaluation of new amide-, carbamate-, and ureido-type harmicines” (Bioorg Med Chem, 2023).
